Results as given in paper PMC7687008, “Small molecule inhibitors provide insights into the relevance of LAT1 and LAT2 in materno‐foetal amino acid transport” (Journal of Cellular and Molecular Medicine, 2020).
Values joined by “and” are separate entries in the source; they are usually repeats but may differ in a detail not shown here. Equal entries are not always repeated. “Also recorded” adds a separate entry of the source. Where two headings read alike, the source gives them in different places.

Legend:
[1] = target: LAT1/LAT2 (System L transporters) in BeWo-CTB cells (Homo sapiens, UniProt Q01650); experiment: Leucine uptake inhibition in BeWo-CTB (undifferentiated BeWo cells), Na+-free buffer, 3H-leucine; type: cell-based; conditions: for EC50: 3 min
[2] = test system: LAT1/LAT2 (System L transporters) in BeWo-STB cells; experiment: Leucine uptake inhibition in BeWo-STB (forskolin-differentiated BeWo cells), Na+-free buffer, 3H-leucine; type: cell-based, human; conditions: for EC50 / inhibition of leucine uptake: BeWo-STB; for EC50: 3 min; for residual leucine uptake: 10 µM; for inhibition of leucine uptake: 10 µmol/L inhibitor
Method: (§1) BeWo cells (clone b30) were cultured in DMEM containing 1.0 g/L glucose (DMEM‐lowGlucose; Gibco). […] Cells were cultured in DMEM‐lowGlucose at 37°C with 5% CO2 atmosphere for 7‐14 days.
JPH203, JG336 and JX009 were synthesized following the routes described in the European Patent Application EP 2‐959‐918‐A1, 2014. Compounds were obtained as hydrochlorides, dissolved in dimethyl sulfoxide (DMSO, Merck, Darmstadt, Germany) and applied in the concentration range from 0.001 to 31.6 μmol/L. JPH203 has been characterized as highly LAT1‐specific; JX009 is described as LAT1 and LAT2‐specific inhibitor. ^37 JG336 is a derivate of JPH203 with an additional methoxy group at the peripheral phenyl moiety residue. Compound structures are depicted in Figure 4. The ^1H‐NNMR and ^13C‐NMR spectra data of the compounds were in agreement with the expected structures and are included in the Supporting Information.
FIGURE 4 Inhibition of leucine uptake in BeWo cells using small molecule inhibitors with different specificities. Dose‐response experiments in BeWo‐cytotrophoblasts (BeWo‐CTB) and forskolin‐stimulated BeWo‐syncytiotrophoblasts (BeWo‐STB) for the established LAT1‐specific inhibitor JPH203 (A) and for the alternative compound JG336 which carries an additional methoxy group as marked in the dashed red box (B). […] BCH is a widely accepted inhibitor blocking all System L mediated transport. […] (A‐C) The new inhibitors JG336 and JX009 as well as JPH203 reached maximal inhibition (first concentration without significant difference to the bottom value) at a concentration of 10 µmol/L, JG336 required 1 µmol/L for maximal inhibition in BeWo‐CTB. BCH reached maximal inhibition at 1 mmol/L in both differentiation stages. […] Dose‐response kinetics were calculated using the nonlinear four‐parameter model [Y = Bottom + (Top − Bottom)/(1 + 10^((LogEC50‐X)*HillSlope))] and ordinary fit with GraphPad Prism software.

[3] = target: SLC7 transporters in HT-29 cells (Homo sapiens, UniProt Q01650); experiment: Leucine uptake inhibition in HT-29 cells; conditions: for EC50: EC50 of leucine uptake inhibition, Na+-free Hanks buffer
[4] = test system: LAT1/LAT2 (System L transporters) in polarized BeWo monolayer; experiment: Leucine transfer across polarized BeWo monolayer (Transwell), apical to basal, and intracellular leucine content; type: cell-based, human
Method: as §1
Before starting the transfer experiment, the formation of a tight trophoblast monolayer in BeWo cells was monitored by measuring transepithelial electrical resistance (TEER, [Ω*cm^2]) and passive diffusion as reported previously. ^38 TEER and cellular capacitance (Ccl, [µF/cm^2]) were measured every 30 minutes and analysed using the cellZscope system (nanoAnalytics, Münster, Germany) according to the manufacturer's instructions. The apparent permeability coefficient (Papp, [cm/s]) was calculated by measuring the rates of passive transfer of the paracellular pathway marker Lucifer yellow (LY) as previously described. ^39 BeWo monolayers with verified tightness were selected after 7 days of culturing on Transwell® membranes and randomly assigned to leucine transfer time courses and inhibition experiments. […] Radioactivity was quantified using Tri‐carb 2100TR Liquid Scintillation Counter (PerkinElmer).
FIGURE 5 Relevance of LAT1 and System L inhibition in leucine transfer across the placental barrier in vitro. A, Leucine transfer across a tight BeWo monolayer was measured from the apical (ie upper compartment) towards the basal (ie lower compartment) side during 6 h using the Transwell® system. […]

[5] = test system: Caco-2 cells; design: method as in PMID 21914964; conditions: cited from earlier work
[6] = 167 µmol/L leucine, Na+-free Hank's buffer, read-out: EC50 of leucine uptake inhibition
[7] = 167.2 µmol/L leucine, four-parameter fit, read-out: EC50 (best-fit value in Figure 4)
[8] = BeWo-CTB, 167 µmol/L leucine, Na+-free Hank's buffer, read-out: EC50 of leucine uptake inhibition
[9] = BeWo-CTB, 167.2 µmol/L leucine, four-parameter fit, read-out: EC50 (best-fit value in Figure 4)

Chain of LAT1/LAT2 (System L transporters) in BeWo-CTB cells (Q01650 whole entry): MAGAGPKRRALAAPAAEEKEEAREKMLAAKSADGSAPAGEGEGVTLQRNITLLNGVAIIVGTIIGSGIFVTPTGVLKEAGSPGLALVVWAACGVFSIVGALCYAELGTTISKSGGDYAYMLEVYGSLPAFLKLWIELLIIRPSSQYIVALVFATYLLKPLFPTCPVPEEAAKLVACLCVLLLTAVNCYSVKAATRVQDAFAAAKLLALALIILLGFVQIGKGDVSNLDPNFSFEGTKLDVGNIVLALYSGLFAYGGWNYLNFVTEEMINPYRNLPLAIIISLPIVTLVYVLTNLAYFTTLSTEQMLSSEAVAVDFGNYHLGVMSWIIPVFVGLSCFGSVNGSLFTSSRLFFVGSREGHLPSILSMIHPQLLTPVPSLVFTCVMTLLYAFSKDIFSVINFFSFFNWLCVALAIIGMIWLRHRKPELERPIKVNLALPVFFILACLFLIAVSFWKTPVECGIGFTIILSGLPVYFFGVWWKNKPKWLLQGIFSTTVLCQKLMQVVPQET
Chain of LAT1/LAT2 (System L transporters) in BeWo-CTB cells (P08195 103-630 partner): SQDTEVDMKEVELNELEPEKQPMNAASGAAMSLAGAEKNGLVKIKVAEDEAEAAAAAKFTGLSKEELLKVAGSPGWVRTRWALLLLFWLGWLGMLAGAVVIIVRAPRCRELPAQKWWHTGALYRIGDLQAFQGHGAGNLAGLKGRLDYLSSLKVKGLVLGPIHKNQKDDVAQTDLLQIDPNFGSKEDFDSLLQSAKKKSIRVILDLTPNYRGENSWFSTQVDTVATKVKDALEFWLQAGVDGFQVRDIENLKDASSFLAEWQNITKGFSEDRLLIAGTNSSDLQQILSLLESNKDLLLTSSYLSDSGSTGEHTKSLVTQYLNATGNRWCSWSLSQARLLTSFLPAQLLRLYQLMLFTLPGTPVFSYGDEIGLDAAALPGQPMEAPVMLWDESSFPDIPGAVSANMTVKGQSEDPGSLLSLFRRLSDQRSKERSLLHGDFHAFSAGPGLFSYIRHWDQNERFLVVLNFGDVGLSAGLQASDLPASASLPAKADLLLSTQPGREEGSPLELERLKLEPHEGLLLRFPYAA
Chain of SLC7 transporters in HT-29 cells (Q01650 whole entry): as the sequence (Q01650 whole entry) above
Chain of SLC7 transporters in HT-29 cells (P08195 102-630 partner): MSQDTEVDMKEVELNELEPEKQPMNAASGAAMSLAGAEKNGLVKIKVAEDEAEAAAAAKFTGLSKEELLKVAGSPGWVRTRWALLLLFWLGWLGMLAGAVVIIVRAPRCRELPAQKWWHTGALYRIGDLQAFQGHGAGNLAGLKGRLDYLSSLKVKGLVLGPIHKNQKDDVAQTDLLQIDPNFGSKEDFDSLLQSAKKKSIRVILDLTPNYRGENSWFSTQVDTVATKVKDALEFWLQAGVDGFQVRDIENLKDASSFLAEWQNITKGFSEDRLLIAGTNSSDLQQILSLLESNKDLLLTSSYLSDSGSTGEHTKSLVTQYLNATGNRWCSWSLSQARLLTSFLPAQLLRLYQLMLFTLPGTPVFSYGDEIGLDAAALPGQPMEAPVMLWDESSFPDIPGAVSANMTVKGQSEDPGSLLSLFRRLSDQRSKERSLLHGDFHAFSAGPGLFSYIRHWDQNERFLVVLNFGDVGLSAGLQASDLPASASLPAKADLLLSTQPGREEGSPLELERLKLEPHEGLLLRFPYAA

| EC50 [1, 8] | EC50 [1, 9] [nM] | extent of leucine uptake inhibition ([3]; 167µM leucine) | EC50 ([3]; 30µM leucine) [nM] | EC50 ([3]; 167µM leucine, 3min) [nM] | SMILES | Bottom of dose-response fit (leucine uptake at maximal inhibition) ([1]; BeWo-CTB, four-parameter fit) [nmol/mg protein] | Top of dose-response fit (leucine uptake) ([1]; BeWo-CTB, four-parameter fit) [nmol/mg protein] | Bottom of dose-response fit (leucine uptake at maximal inhibition) [2] [nmol/mg protein] | Top of dose-response fit (leucine uptake) [2] [nmol/mg protein] | EC50 [2, 6] | EC50 [2, 7] [nM] | concentration reaching maximal inhibition (first concentration without significant difference to bottom value) [2] [µmol/L] | residual leucine uptake [2] [nmol/mg protein] | inhibition of leucine uptake [2] | other results |
| --- | --- | --- | --- | --- | --- | --- | --- | --- | --- | --- | --- | --- | --- | --- | --- |
| – | – | – | – | – | NC1(C(=O)O)CC2CCC1C2 (stereo not drawn) [BCH, 2‐amino‐2‐norbornane‐carboxylic acid] | 0 | 5.305 | 0 | 9.770 | 442000 nM | 442000 | – | – | – | EC50 ([1]; read-out: EC50 (best-fit value in Figure 4), BeWo-CTB, 167.2 µmol/L leucine, four-parameter fit): 709000 nM; EC50 ([1]; read-out: EC50 of leucine uptake inhibition, BeWo-CTB, 167 µmol/L leucine, Na+-free Hank's buffer): 709000 nM; times less effective than JX009 [2]: > 100 times |
| 800 nM | 799 | complete leucine uptake inhibition | 210 | 730 | COc1ccc(-c2nc3cc(N)cc(COc4c(Cl)cc(C[C@H](N)C(=O)O)cc4Cl)c3o2)cc1 [JG336] | 0.622 | 2.673 | 3.212 | 8.534 | 1990 nM and 2000 nM | 1990 | 10 | 3.2 | 62.4% and 62% | concentration required for maximal inhibition ([1]; BeWo-CTB): 1 µmol/L |
| 3100 nM | 3080 | complete leucine uptake inhibition | 150 | 2170 | Nc1cc(COc2c(Cl)cc(C[C@H](N)C(=O)O)cc2Cl)c2oc(-c3ccccc3)nc2c1 [JPH203] | 0.716 | 3.888 | 3.758 | 8.593 | 2550 nM and 2600 nM | – | 10 | 3.8 | 56.3% and 56% | permeability (membrane and cell layer) [5]: has been shown |

| SMILES | EC50 [1, 8] | EC50 [1, 9] [nM] | extent of leucine uptake inhibition ([3]; 167µM leucine) | EC50 ([3]; 30µM leucine) [nM] | EC50 ([3]; 167µM leucine, 3min) [nM] | Bottom of dose-response fit (leucine uptake at maximal inhibition) ([1]; BeWo-CTB, four-parameter fit) [nmol/mg protein] | Top of dose-response fit (leucine uptake) ([1]; BeWo-CTB, four-parameter fit) [nmol/mg protein] | Bottom of dose-response fit (leucine uptake at maximal inhibition) [2] [nmol/mg protein] | Top of dose-response fit (leucine uptake) [2] [nmol/mg protein] | EC50 [2, 6] | EC50 [2, 7] [nM] | concentration reaching maximal inhibition (first concentration without significant difference to bottom value) [2] [µmol/L] | residual leucine uptake [2] [nmol/mg protein] | inhibition of leucine uptake [2] | other results |
| --- | --- | --- | --- | --- | --- | --- | --- | --- | --- | --- | --- | --- | --- | --- | --- |
| CN(C)c1ccc(-c2cccc(Oc3cccc(C[C@H](N)C(=O)O)c3)c2)cn1 [JX009] | 3900 nM and < 4000 nM | 3860 | complete leucine uptake inhibition | 600 | 3760 | 0.774 | 4.066 | 1.093 | 8.426 | 2350 nM and 2300 nM | 2350 | 10 | – | 87% | inhibition of leucine uptake ([1]; BeWo-CTB (regardless of differentiation stage)): 87%; decrease of intracellular 3H-leucine content of BeWo monolayer ([4]; 10 µM): no effect; decrease of intracellular 3H-leucine content of BeWo monolayer ([4]; 10 µmol/L, end of transfer experiment (6 hours)): intracellular leucine retention; also recorded: unchanged |
